According to the supplement of paper PMC11451515:

Test system: P12-Ichikawa
Experiment: cell viability relative to DMSO control; higher = less cytotoxic
Conditions: 48 h
Summary of the method: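 NOMO1 or SEM (500 cells/well) or P12-Ichikawa (1000 cells/well) leukemia cells were adapted for at least four passages in each medium. They were seeded in 1536-well plates (5 μl) and pin-dosed with library compounds in DMSO over an 11-point threefold series, 47 μM to 0.79 nM. CellTiter-Glo One luminescence was read after 48 h at 37°C. Viability is the per-plate percentage relative to DMSO wells, with cell-free wells as background.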

[1] = HPLM + 10% dialyzed FBS, 0.000781 µM
[2] = HPLM + 10% dialyzed FBS, 0.00234 µM
[3] = HPLM + 10% dialyzed FBS, 0.00702 µM
[4] = HPLM + 10% dialyzed FBS, 0.0211 µM
[5] = HPLM + 10% dialyzed FBS, 0.0632 µM
[6] = HPLM + 10% dialyzed FBS, 0.19 µM
[7] = HPLM + 10% dialyzed FBS, 0.569 µM
[8] = HPLM + 10% dialyzed FBS, 1.71 µM
[9] = HPLM + 10% dialyzed FBS, 5.12 µM
[10] = HPLM + 10% dialyzed FBS, 15.4 µM
[11] = HPLM + 10% dialyzed FBS, 46.1 µM
[12] = RPMI 5 mM glucose + 10% FBS, 0.000781 µM
[13] = RPMI 5 mM glucose + 10% FBS, 0.00234 µM
[14] = RPMI 5 mM glucose + 10% FBS, 0.00702 µM
[15] = RPMI 5 mM glucose + 10% FBS, 0.0211 µM
[16] = RPMI 5 mM glucose + 10% FBS, 0.0632 µM
[17] = RPMI 5 mM glucose + 10% FBS, 0.19 µM
[18] = RPMI 5 mM glucose + 10% FBS, 0.569 µM
[19] = RPMI 5 mM glucose + 10% FBS, 1.71 µM
[20] = RPMI 5 mM glucose + 10% FBS, 5.12 µM
[21] = RPMI 5 mM glucose + 10% FBS, 15.4 µM
[22] = RPMI 5 mM glucose + 10% FBS, 46.1 µM
[23] = RPMI 5 mM glucose + 10% dialyzed FBS, 0.000781 µM
[24] = RPMI 5 mM glucose + 10% dialyzed FBS, 0.00234 µM
[25] = RPMI 5 mM glucose + 10% dialyzed FBS, 0.00702 µM
[26] = RPMI 5 mM glucose + 10% dialyzed FBS, 0.0211 µM
[27] = RPMI 5 mM glucose + 10% dialyzed FBS, 0.0632 µM
[28] = RPMI 5 mM glucose + 10% dialyzed FBS, 0.19 µM
[29] = RPMI 5 mM glucose + 10% dialyzed FBS, 0.569 µM
[30] = RPMI 5 mM glucose + 10% dialyzed FBS, 1.71 µM
[31] = RPMI 5 mM glucose + 10% dialyzed FBS, 5.12 µM
[32] = RPMI 5 mM glucose + 10% dialyzed FBS, 15.4 µM
[33] = RPMI 5 mM glucose + 10% dialyzed FBS, 46.1 µM

Row | SMILES | cell viability [1] [%] | cell viability [2] [%] | cell viability [3] [%] | cell viability [4] [%] | cell viability [5] [%] | cell viability [6] [%] | cell viability [7] [%] | cell viability [8] [%] | cell viability [9] [%] | cell viability [10] [%] | cell viability [11] [%] | cell viability [12] [%] | cell viability [13] [%] | cell viability [14] [%] | cell viability [15] [%] | cell viability [16] [%] | cell viability [17] [%] | cell viability [18] [%] | cell viability [19] [%] | cell viability [20] [%] | cell viability [21] [%] | cell viability [22] [%] | cell viability [23] [%] | cell viability [24] [%] | cell viability [25] [%] | cell viability [26] [%] | cell viability [27] [%] | cell viability [28] [%] | cell viability [29] [%] | cell viability [30] [%] | cell viability [31] [%] | cell viability [32] [%] | cell viability [33] [%]
1 | CCn1c(-c2nonc2N)nc2cnc(Oc3cccc(NC(=O)c4ccc(OCCN5CCOCC5)cc4)c3)cc21 | 110 | 107 | 111 | 111 | 112 | 109 | 112 | 116 | 94.9 | 77 | 70.1 | 106 | 122 | 107 | 115 | 107 | 113 | 98.5 | 102 | 89.5 | 66.3 | 55.4 | 104 | 116 | 127 | 117 | 115 | 124 | 117 | 102 | 102 | 74.9 | 69.5
2 | CCOC(=O)\C1=C(/C)N\C2=C(C1C3=CC=C(C=C3)C4=CC=CC=C4)\C(=O)CC(C)(C)C2 (stereo not given) | 119 | 112 | 123 | 110 | 119 | 110 | 109 | 107 | 108 | 108 | 103 | 108 | 104 | 117 | 117 | 115 | 99.8 | 109 | 103 | 102 | 95.3 | 113 | 112 | 118 | 116 | 114 | 111 | 101 | 104 | 101 | 107 | 98.9 | 95.3
3 | Cn1c(CNc2ccc(C(=N)N)cc2)nc2cc(C(=O)N(CCC(=O)O)c3ccccn3)ccc21 | 96.7 | 102 | 107 | 109 | 105 | 114 | 104 | 109 | 117 | 113 | 114 | 100 | 118 | 120 | 118 | 123 | 113 | 122 | 128 | 115 | 110 | 120 | 97.3 | 111 | 112 | 110 | 115 | 110 | 109 | 120 | 112 | 105 | 112
4 | C[S+]([O-])(=O)C1=CC=C(C=C1)C/2=C(/C(=O)OC2)C3=CC=CC=C3 | 113 | 120 | 112 | 122 | 126 | 126 | 117 | 125 | 123 | 125 | 122 | 108 | 125 | 112 | 115 | 124 | 133 | 141 | 135 | 134 | 132 | 131 | 107 | 120 | 115 | 110 | 123 | 120 | 120 | 118 | 125 | 121 | 109
5 | COc1cc(OC)c(/C=C/[S+](=O)([O-])Cc2ccc(OC)c(NCC(=O)[O][Na])c2)c(OC)c1 | 125 | 124 | 123 | 120 | 116 | 87.5 | 18.3 | 13.2 | 12.7 | 10.1 | 9.65 | 124 | 120 | 126 | 104 | 118 | 76.9 | 23.1 | 12.5 | 11.1 | 11.4 | 10.8 | 120 | 122 | 120 | 115 | 116 | 50.1 | 24.6 | 13.8 | 12 | 11.3 | 9.89
6 | CNc1nccc(-c2cccnc2Oc2cc(C(=O)Nc3cccc(C(F)(F)F)c3)ccc2C)n1 | 105 | 111 | 111 | 113 | 106 | 122 | 118 | 123 | 117 | 91 | 105 | 112 | 113 | 112 | 119 | 119 | 121 | 115 | 127 | 119 | 82.8 | 103 | 105 | 101 | 104 | 114 | 112 | 110 | 112 | 120 | 111 | 90.7 | 103
7 | OC1CCC(Nc2ncc3nc(Nc4c(F)cc(F)cc4F)n([C@@H]4CCOC4)c3n2)CC1 (stereo not given in full) | 111 | 114 | 115 | 117 | 119 | 126 | 127 | 124 | 120 | 117 | 114 | 113 | 123 | 114 | 119 | 127 | 122 | 134 | 127 | 120 | 118 | 123 | 111 | 117 | 114 | 120 | 117 | 117 | 127 | 119 | 126 | 121 | 114
8 | COc1ccc(-c2nc(N3CCOCC3)c3sc(CN(C)c4ncc(C(=O)NO)cn4)cc3n2)cn1 | 109 | 121 | 101 | 62.6 | 6.62 | 7.21 | 7.09 | 6.69 | 6.67 | 6.8 | 7.92 | 102 | 127 | 111 | 57.6 | 7.68 | 7.7 | 7.72 | 6.89 | 7.19 | 7.05 | 5.24 | 107 | 119 | 108 | 74.2 | 10.5 | 8.35 | 8.38 | 8.07 | 7.55 | 6.64 | 5.83
9 | CC(C)(C)c1[nH]cnc1/C=c1\[nH]c(=O)/c(=C/c2ccccc2)[nH]c1=O | 115 | 80 | 22.5 | 18.4 | 12 | 9.79 | 7.81 | 3.5 | 2.31 | 2.32 | 2.23 | 100 | 97 | 16.3 | 26.5 | 17.8 | 8.22 | 5.98 | 3.28 | 2.14 | 1.52 | 1.95 | 103 | 110 | 32.7 | 36.8 | 25 | 15.7 | 14.2 | 4.42 | 4.87 | 2.24 | 2.04
10 | Cc1ccc([S+](=O)([O-])N[C@@H](Cc2ccccc2)C(=O)CCl)cc1 | 95 | 106 | 101 | 101 | 105 | 107 | 105 | 106 | 104 | 94.4 | 46.4 | 90.8 | 92.4 | 95.7 | 104 | 113 | 107 | 88.7 | 105 | 109 | 96.2 | 36 | 93.9 | 92.6 | 97.2 | 102 | 95.1 | 91.3 | 93.2 | 94.7 | 106 | 105 | 36.9
11 | O=C(Nc1cc2cc[nH]c2cn1)c1ccccc1 | 95 | 90.7 | 109 | 112 | 113 | 109 | 111 | 106 | 5.06 | 1.54 | -0.599 | 93.1 | 113 | 111 | 114 | 119 | 130 | 109 | 104 | 90.4 | 45.8 | 1.1 | 79.4 | 101 | 102 | 104 | 99.7 | 102 | 103 | 101 | 58.2 | 7.54 | 1.18
12 | COc1ccc(C2CNC(=O)C2)cc1OC1CCCC1 (stereo not given) | 88.6 | 100 | 102 | 99 | 109 | 105 | 107 | 108 | 105 | 99 | 102 | 89 | 106 | 91.7 | 99 | 101 | 96.7 | 105 | 103 | 98.4 | 102 | 93 | 84.8 | 97.6 | 89.7 | 103 | 95.6 | 97.2 | 92.4 | 106 | 106 | 109 | 99
13 | CCC(C)(C)c1ccc(CC(C)CN2C[C@@H](C)O[C@@H](C)C2)cc1 (stereo not given in full) | 81.2 | 81.5 | 82.8 | 91.5 | 97.3 | 84.6 | 91.9 | 94.9 | 89 | 87.8 | 91.6 | 88.9 | 81.4 | 88.1 | 87.8 | 89.1 | 82.3 | 93.9 | 85.6 | 90.7 | 86.2 | 88 | 72 | 76.7 | 78.3 | 79.6 | 81.8 | 80.6 | 84 | 81.8 | 85.5 | 76.3 | 75.8
14 | CC(C)NC[C@@H](C(=O)N1CCN(c2ncnc3c2[C@H](C)C[C@H]3O)CC1)c1ccc(Cl)cc1 | 118 | 120 | 114 | 109 | 100 | 99.5 | 92.8 | 83 | 67 | 48.2 | 28.1 | 109 | 105 | 111 | 107 | 100 | 85.8 | 71.3 | 65.2 | 52.8 | 44.4 | 33.6 | 112 | 109 | 114 | 115 | 103 | 95.3 | 85.2 | 78.1 | 55.5 | 37.2 | 23.5
15 | COc1cc2ncnc(Nc3ccc(F)c(Cl)c3)c2cc1NC(=O)/C=C/CN1CCCCC1 | 109 | 108 | 103 | 106 | 107 | 97.6 | 106 | 90.1 | 85.4 | 79.1 | 67.9 | 106 | 106 | 103 | 101 | 102 | 106 | 102 | 92.6 | 85.7 | 82.9 | 75.2 | 101 | 109 | 94.5 | 109 | 105 | 102 | 104 | 88.4 | 80.9 | 76 | 67.8
